Experimental data reported in patent US10905774B2, “Nanocage and use thereof” (KOREA INSTITUTE OF SCIENCE AND TECHNOLOGY, priority 2016, dated 2021).
Entries after “also recorded” stand apart in the source; their conditions may differ.

How the values were obtained:
[1] = tested on: CT26.CL25 cancer cells; assay: In vivo cancer growth inhibition, intratumoral nanocages; set-up: species or system Balb/c wild-type mice; conditions: CT26.CL25 subcutaneous; intratumoral 28 mg/kg
Experimental: (§1) The antitumor activities of the ferritin heavy chain nanocage prepared in Examples 1-1 to 1-5 and the doxorubicin nanocage complex prepared in Example 3 were examined. Particularly, Balb/c wild type mice were used as the experimental animals, and experiments on the above experimental animals were carried out according to the regulations of the KIST animal ethics committee.
First, in order to measure the in vivo anticancer activity of the various ferritin heavy chain nanocages prepared in Examples 1-1 to 1-5, 1×10^6 cells of CT26.CL25 cancer cells expressing β-galactosidase were subcutaneously injected on the left side of Balb/c wild-type mice in order to induce cancer and then each experimental substance (buffer only, FH-mSIRPα WT, FH-SIRPα HV, FH-SIRPγ WT and FH-SIRPγ V2) was injected intratumorally at dose of 28 mg/kg) after 5 day of tumor inoculation, and the length (L) and the width (W) of the tumor tissues were measured using a caliper at intervals of 3 days (FIG. 7A), and then the volume of tumor tissue was calculated using the following formula: Tumor tissue volume (V [mm^3])=(L [mm])×(W [mm])^2×0.5

[2] = tested on: HT29 human colon cancer cells; assay: Flow cytometry of nanocage binding to HT29 cancer cells; type: cell-based; conditions: 20, 200, 400 or 600 nM
Experimental: In order to confirm the affinity of cancer cells for nanocages produced using various SIRP proteins prepared in Examples 1-2 to 1-5, respectively in addition to the nanocage prepared in Example 1-1, flow cytometry was performed. Particularly, HT29 human colon cancer cells were seeded into 2×10^5 cells/ml and the wild-type ferritin heavy chain nanocage as a control group, the FH-SIRPα HV nanocage prepared in Example 1-1, the FH-hSIRPα WT nanocage prepared in Example 1, the FH-SIRPγ WT nanocage prepared in Example 1-3 and the FH-SIRPγ V2 nanocage prepared in Example 1-5 were treated at the concentration of 20, 200, 400 or 600 nM, respectively, and the degree of cell binding was measured. Particularly, after treating anti-ferritin heavy chain primary antibody (Abcam, Cambridge, UK, 1:200) and an Alexafluor 488-conjugated donkey anti-rabbit secondary antibody (Jackson ImmunoResearch, Suffolk, UK, 1:400), the cells were sorted according to fluorescence intensity through flow cytometry analysis.

[3] = tested on: CT26.CL25 mouse colon cancer cells; assay: Phagocytosis rate of CT26.CL25 cells by bone marrow-derived macrophages (counting phagocytized cells); type: cell-based; conditions: BMDMs cocultured with CT26.CL25 at 37° C. for 4 hours
Experimental: After the staining, phagocytosis rate of macrophages against cancer cells were determined by counting phagocytized cancer cells by the macrophages.

[4] = tested on: CT26.CL25 cancer cells; assay: In vivo cancer growth inhibition, tail vein injection of doxorubicin nanocage complex and comparators; set-up: species or system Balb/c wild-type mice; conditions: tail vein 1 mg/kg; for tumor tissues excised after 25 days of cancer cell injection: day 25
Experimental: as §1
In addition, the present inventors investigated the in vivo anticancer activity of the doxorubicin-encapsulated nanocage complex prepared in Example 3 above. Particularly, 1×10^6 cells of CT26.CL25 cancer cells were subcutaneously injected into the above Balb/c wild-type mice to induce cancer. On the 7th day after the injection of cancer cells, 1 mg/kg of each test substance (buffer only, doxorubicin-loaded FH-SIRPα HV nanocage, doxorubicin-loaded ferritin heavy chain nanocage, doxorubicin+recombinant SIRPα, doxorubicin only, FH-SIRPα HV nanocage, ferritin heavy chain nanocage or recombinant SIRPα) was injected first by the tail vein and further injected four times at interval of 3 days at the same dose. The animals were sacrificed for 25 days after the injection of cancer cells, and the tumor tissues were excised and an ex vivo image was taken (FIG. 7D). Further, the volume of the tumor tissue over time before the sacrifice of the experimental animals was recorded from 7 days after the injection of cancer cells at the interval of 3 days by calculating using the following formula after measuring length (L) and width (W) of tumor tissues using a caliper: Tumor tissue volume (V [mm^3])=(L [mm])×(W [mm])^2×0.5

[5] = tested on: secondary cancer transplanted to other site; assay: Anticancer memory effect: secondary tumor rechallenge and survival; type: in vivo, mice; conditions: after 80 days of tumor rechallenge
Text: The present inventors have hypothesized that the effect of FH-SIRPα nanocage according to an embodiment of the present invention is due to the recruiting of immune cells from the results of Experimental Example 3. Thus, the present inventors analyze growth of secondary cancer transplanted to other site and counted survival rate of the experimental animals after excising primary tumor tissues from the experimental animals.

[6] = tested on: Raji, HT-29, 4T1, CT26 and CT26.CL25 cancer cells co-cultured with BMDCs; assay: Phagocytosis of cancer cells by bone marrow-derived dendritic cells (FACS); type: cell-based, human, mouse; conditions: 400 nM; compared with control group
Text: (§2) Particularly, the present inventors observed the phagocytic action of macrophages and dendritic cells against tumor cells through FACS analysis. First, 3×10^5 cells/ml of bone marrow-derived macrophages (BMDMs) pre-stained with CellTracker Green (Thermo Fisher Scientific, USA) and (a) 1.25×10^6 cells/ml of human Raji Burkitt lymphoma cells, (b) human HT-29 colorectal cancer cells, (c) mouse 4T1 breast cancer cells, (d) mouse CT26 colorectal cancer cells and (e) mouse CT26.CL25 colorectal cancer cells overexpressing β-galactosidase pre-stained with pHrodo Red SE, respectively were seeded in RPMI medium and buffer only (control), the ferritin-SIRPα fusion nanocage (FH-SIRPα HV) of the present invention, the wild-type ferritin heavy chain nanocage (wtFH) and the monomeric SIRPα (mSIRPα) were treated at the concentration of 400 nM, respectively. […] The phagocytosis rate was determined by the following formula. […]

[7] = molecular target: Human CD47 (Homo sapiens, UniProt Q08722); assay: Surface plasmon resonance (SPR) analysis of affinities and kinetics of binding to human CD47
Human CD47, sequence (Q08722 19-323): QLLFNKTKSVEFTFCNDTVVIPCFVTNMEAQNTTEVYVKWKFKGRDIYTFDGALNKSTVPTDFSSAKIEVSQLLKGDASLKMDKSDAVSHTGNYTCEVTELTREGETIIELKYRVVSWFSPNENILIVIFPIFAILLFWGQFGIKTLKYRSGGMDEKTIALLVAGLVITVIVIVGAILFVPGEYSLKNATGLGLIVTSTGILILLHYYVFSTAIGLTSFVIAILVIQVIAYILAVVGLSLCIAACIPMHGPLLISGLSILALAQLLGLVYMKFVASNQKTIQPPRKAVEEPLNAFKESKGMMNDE
Experimental: (§3) The present inventors performed fluorescence microscopy to confirm whether the FH-SIRPα HV nanocage prepared in Example 1 specifically binds to CD47 on the surface of cancer cells. Specifically, CT26 mouse colorectal cancer cell line and HT29 human colorectal cancer cell line were inoculated at a concentration of 3×10^4 cells/ml. Then, after treating 400 nM of FH-SIRPα HV nanocage prepared in Example 1-1 or same amount of wild-type ferritin heavy chain nanocage as control group, anti-ferritin primary antibody (Abcam, Cambridge, UK) and FITC-conjugated anti-mouse rabbit secondary antibody (Jackson ImmunoResearch, Suffolk, UK) were treated and then fluorescence microscopic images were obtained. […] The affinities and kinetics of FH-SIRP α HV nanocage binding human or mouse CD47 were analyzed by surface plasmon resonance (SPR) analysis and the results are shown in Table 1 below.

[8] = molecular target: T1, Mouse CD47 (Mus musculus, UniProt Q61735); assay: Surface plasmon resonance (SPR) analysis of affinities and kinetics of binding to mouse CD47
T1 sequence (Q61735 19-303): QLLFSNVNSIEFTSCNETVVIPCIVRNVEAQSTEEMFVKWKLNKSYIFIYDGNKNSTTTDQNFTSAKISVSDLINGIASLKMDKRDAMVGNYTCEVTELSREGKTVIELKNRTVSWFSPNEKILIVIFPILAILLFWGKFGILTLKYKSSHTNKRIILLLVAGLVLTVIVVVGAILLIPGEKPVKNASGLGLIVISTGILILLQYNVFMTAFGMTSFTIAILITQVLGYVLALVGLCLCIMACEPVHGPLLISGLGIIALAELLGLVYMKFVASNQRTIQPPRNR
Experimental: as §3

[9] = tested on: Raji, HT-29, 4T1, CT26 and CT26.CL25 cancer cells co-cultured with BMDMs; assay: Phagocytosis of cancer cells by bone marrow-derived macrophages (FACS); type: cell-based, human, mouse; conditions: 400 nM; compared with control group
Text: as §2

[10] = five injections at interval of 3 days

| Molecule | antitumor activity (tumor growth) [1] | degree of cell binding [2] | phagocytic activity against cancer cells [3] | tumor tissues excised after 25 days of cancer cell injection [4] | anticancer effect (growth of cancer cells) [4, 10] | survival rate [5] [%] | phagocytosis of cancer cells by dendritic cells (BMDCs) [6] | volume of the tumor [4, 10] | Kd [7] [nM] | ka [7] [M⁻¹ s⁻¹] | kd [7] [s⁻¹] | Kd [8] [nM] | ka [8] [M⁻¹ s⁻¹] | kd [8] [s⁻¹] | phagocytosis of cancer cells by macrophages (BMDMs) [9] |
| --- | --- | --- | --- | --- | --- | --- | --- | --- | --- | --- | --- | --- | --- | --- | --- |
| FH-hSIRPα WT nanocage: Ferritin heavy chain nanocage of fusion protein with human SIRPα wild-type protein (SEQ ID NO: 92) | somewhat lowered | binds to cancer cells in a concentration-dependent manner | exhibited phagocytic activity against cancer cells |  |  |  |  |  |  |  |  |  |  |  |  |
| COc1cccc2c1C(=O)c1c(O)c3c(c(O)c1C2=O)C[C@@](O)(C(=O)CO)C[C@@H]3O[C@H]1C[C@H](N)[C@H](O)[C@H](C)O1 [doxorubicin] |  |  |  | limited | insignificant; also recorded: not so significant | 50 |  |  |  |  |  |  |  |  |  |
| mSIRPα: Monomeric (recombinant) SIRPα protein used as comparator |  |  |  | same tumor volume as the control group | not so significant | 50 | significantly increased | exceeded 1,000 mm^3 | 0.0054 | 7e+06 | 3.7e-05 | 6.2 | 1.8e+06 | 0.011 | significantly increased |
| wtFH: Wild-type ferritin heavy chain nanocage used as control [reference compound] |  | did not bind to cancer cells even when the concentration increased |  |  |  |  | very low |  |  |  |  |  |  |  | very low |
